Laboratory results published in article PMC5218480 (PLoS ONE, 2017).

Tested on: MV-4-11 cells
Assay: Gene expression microarray analysis (Affymetrix PrimeView) and GSEA
Type: cell-based, human
Design: RFU PODN (11730768_x_at) / Fold change /veh PODN (11730768_x_at) / RFU LINC00158 (11744669_a_at) / Fold change /veh LINC00158 (11744669_a_at) / RFU DUSP10 (11751237_a_at) / Fold change /veh DUSP10 (11751237_a_at) / RFU ID3 (11757404_x_at) / Fold change /veh ID3 (11757404_x_at) / RFU PLEKHG5 (11737974_s_at) / Fold change /veh PLEKHG5 (11737974_s_at) / RFU LRRC4B (11730491_at) / Fold change /veh LRRC4B (11730491_at) / RFU GIMAP4 (11747438_a_at) / Fold change /veh GIMAP4 (11747438_a_at) / RFU KRT8 (11758183_x_at) / Fold change /veh KRT8 (11758183_x_at) / RFU CNN1 (11734310_a_at) / Fold change /veh CNN1 (11734310_a_at) / RFU VPS37D (11726825_at) / Fold change /veh VPS37D (11726825_at) / RFU C10orf10 (11716522_x_at) / Fold change /veh C10orf10 (11716522_x_at) / RFU KIR2DL2 /// KIR2DL4 /// KIR2DL5A /// KIR2DL5B /// KIR2DS1 /// KIR2DS2 /// KIR2DS3 /// KIR2DS4 /// KIR3DL3 /// KIR3DL3 /// KIR3DS1 (11738374_at) / Fold change /veh KIR2DL2 /// KIR2DL4 /// KIR2DL5A /// KIR2DL5B /// KIR2DS1 /// KIR2DS2 /// KIR2DS3 /// KIR2DS4 /// KIR3DL3 /// KIR3DL3 /// KIR3DS1 (11738374_at) / RFU C1QL1 (11718748_at) / Fold change /veh C1QL1 (11718748_at) / RFU TMPRSS4 (11747572_a_at) / Fold change /veh TMPRSS4 (11747572_a_at) / RFU HAMP (11756126_x_at) / Fold change /veh HAMP (11756126_x_at) / RFU RNFT2 (11725882_a_at) / Fold change /veh RNFT2 (11725882_a_at) / RFU NR4A2 (11747474_a_at) / Fold change /veh NR4A2 (11747474_a_at) / RFU ABCC12 (11746883_a_at) / Fold change /veh ABCC12 (11746883_a_at) / RFU TMEM136 (11760407_x_at) / Fold change /veh TMEM136 (11760407_x_at) / RFU CLDN22 /// WWC2 (11732394_at) / Fold change /veh CLDN22 /// WWC2 (11732394_at) / RFU HLA-DPB1 (11760878_x_at) / Fold change /veh HLA-DPB1 (11760878_x_at) / RFU SPINT1 (11716480_a_at) / Fold change /veh SPINT1 (11716480_a_at) / RFU GAP43 (11754022_s_at) / Fold change /veh GAP43 (11754022_s_at) / RFU A4GNT (11735810_at) / Fold change /veh A4GNT (11735810_at) / RFU PRB3 (11715151_x_at) / Fold change /veh PRB3 (11715151_x_at) / RFU TUBB4B (11761932_at) / Fold change /veh TUBB4B (11761932_at) / RFU CAPN14 (11732068_a_at) / Fold change /veh CAPN14 (11732068_a_at) / RFU TMCC2 (11721928_a_at) / Fold change /veh TMCC2 (11721928_a_at) / RFU IRGQ (11745062_a_at) / Fold change /veh IRGQ (11745062_a_at) / RFU FAM174B (11720279_a_at) / Fold change /veh FAM174B (11720279_a_at) / RFU TMPRSS4 (11748680_a_at) / Fold change /veh TMPRSS4 (11748680_a_at) / RFU FAM212B (11763350_a_at) / Fold change /veh FAM212B (11763350_a_at) / RFU PLEKHG5 (11743358_a_at) / Fold change /veh PLEKHG5 (11743358_a_at) / RFU ZSCAN30 (11745921_a_at) / Fold change /veh ZSCAN30 (11745921_a_at) / RFU CMKLR1 (11741424_a_at) / Fold change /veh CMKLR1 (11741424_a_at) / RFU LOC101060620 /// MAPK8IP1 (11723275_at) / Fold change /veh LOC101060620 /// MAPK8IP1 (11723275_at) / RFU SPTSSB (11747773_x_at) / Fold change /veh SPTSSB (11747773_x_at) / RFU PRSS12 (11739890_at) / Fold change /veh PRSS12 (11739890_at) / RFU BIN1 (11741810_x_at) / Fold change /veh BIN1 (11741810_x_at) / RFU WNT11 (11732464_a_at) / Fold change /veh WNT11 (11732464_a_at) / RFU C10orf10 (11716521_a_at) / Fold change /veh C10orf10 (11716521_a_at) / RFU C5orf56 (11738089_at) / Fold change /veh C5orf56 (11738089_at) / RFU CYB561 (11721691_x_at) / Fold change /veh CYB561 (11721691_x_at) / RFU ANKRD19P (11752326_a_at) / Fold change /veh ANKRD19P (11752326_a_at) / RFU OR2T12 /// OR2T33 /// OR2T8 (11738714_s_at) / Fold change /veh OR2T12 /// OR2T33 /// OR2T8 (11738714_s_at) / RFU VCAN (11748164_a_at) / Fold change /veh VCAN (11748164_a_at) / RFU JSRP1 (11732532_at) / Fold change /veh JSRP1 (11732532_at) / RFU KRTAP10-11 (11738290_x_at) / Fold change /veh KRTAP10-11 (11738290_x_at) / RFU MYO3A (11730013_a_at) / Fold change /veh MYO3A (11730013_a_at) / RFU EBF3 (11725865_a_at) / Fold change /veh EBF3 (11725865_a_at) / RFU CAMK2N1 (11719241_x_at) / Fold change /veh CAMK2N1 (11719241_x_at) / RFU C5orf56 (11738088_a_at) / Fold change /veh C5orf56 (11738088_a_at) / RFU OLFML3 (11715873_a_at) / Fold change /veh OLFML3 (11715873_a_at) / RFU LOC100653217 /// NTM (11731650_a_at) / Fold change /veh LOC100653217 /// NTM (11731650_a_at) / RFU MAPK11 (11762145_a_at) / Fold change /veh MAPK11 (11762145_a_at) / RFU FIZ1 (11724087_x_at) / Fold change /veh FIZ1 (11724087_x_at) / RFU OASL (11726364_x_at) / Fold change /veh OASL (11726364_x_at) / RFU SOX15 (11748057_x_at) / Fold change /veh SOX15 (11748057_x_at) / RFU CD79A (11719716_a_at) / Fold change /veh CD79A (11719716_a_at) / RFU HIST1H1D (11736915_at) / Fold change /veh HIST1H1D (11736915_at) / RFU CASKIN2 (11723855_a_at) / Fold change /veh CASKIN2 (11723855_a_at) / RFU LOC730098 (11760151_x_at) / Fold change /veh LOC730098 (11760151_x_at) / RFU OR4N2 (11742367_at) / Fold change /veh OR4N2 (11742367_at) / RFU PRRT2 (11749266_a_at) / Fold change /veh PRRT2 (11749266_a_at) / RFU SNX32 (11753110_a_at) / Fold change /veh SNX32 (11753110_a_at) / RFU CDHR5 (11726645_a_at) / Fold change /veh CDHR5 (11726645_a_at) / RFU RCAN1 (11760418_a_at) / Fold change /veh RCAN1 (11760418_a_at) / RFU FAM167A (11723789_a_at) / Fold change /veh FAM167A (11723789_a_at) / RFU FAM26E (11764081_at) / Fold change /veh FAM26E (11764081_at) / RFU ISYNA1 (11749810_s_at) / Fold change /veh ISYNA1 (11749810_s_at) / RFU ACY1 (11761880_at) / Fold change /veh ACY1 (11761880_at) / RFU 11764098_at / Fold change /veh 11764098_at / RFU SAMD14 (11745864_x_at) / Fold change /veh SAMD14 (11745864_x_at) / RFU NPB (11741838_a_at) / Fold change /veh NPB (11741838_a_at) / RFU TMPRSS6 (11731388_a_at) / Fold change /veh TMPRSS6 (11731388_a_at) / RFU KRTAP10-2 (11738614_at) / Fold change /veh KRTAP10-2 (11738614_at) / RFU ARHGAP8 /// PRR5-ARHGAP8 (11727945_x_at) / Fold change /veh ARHGAP8 /// PRR5-ARHGAP8 (11727945_x_at) / RFU KRTAP5-7 /// NADSYN1 (11734609_at) / Fold change /veh KRTAP5-7 /// NADSYN1 (11734609_at) / RFU RASL12 (11751679_a_at) / Fold change /veh RASL12 (11751679_a_at) / RFU CDKN2B (11736163_a_at) / Fold change /veh CDKN2B (11736163_a_at) / RFU PRF1 (11729649_at) / Fold change /veh PRF1 (11729649_at) / RFU, ZNF638 /// ZNF638-IT1 / Fold change vs veh, ZNF638 /// ZNF638-IT1 / RFU, PANK3 / Fold change vs veh, PANK3 / RFU, SH3YL1 / Fold change vs veh, SH3YL1 / RFU, ZEB2 / Fold change vs veh, ZEB2 / RFU, NRIP1 / Fold change vs veh, NRIP1 / RFU, PTTG1IP / Fold change vs veh, PTTG1IP / RFU, CAPN2 / Fold change vs veh, CAPN2 / RFU, MED14 / Fold change vs veh, MED14 / RFU, SNORA58 / Fold change vs veh, SNORA58 / RFU, C1orf63 / Fold change vs veh, C1orf63 / RFU, LRRFIP1 / Fold change vs veh, LRRFIP1 / RFU, NDUFAF7 / Fold change vs veh, NDUFAF7 / RFU, SLC12A2 / Fold change vs veh, SLC12A2 / RFU, IBTK / Fold change vs veh, IBTK / RFU, ESF1 / Fold change vs veh, ESF1 / Fold change vs veh, TMEM50B / RFU, TAOK1 / Fold change vs veh, TAOK1 / RFU, ACBD3 / Fold change vs veh, ACBD3 / RFU, TMA16 / Fold change vs veh, TMA16 / RFU, RWDD3 / Fold change vs veh, RWDD3 / RFU, BCAT1 / Fold change vs veh, BCAT1 / RFU, EDEM3 / Fold change vs veh, EDEM3 / RFU, TMEM33 / Fold change vs veh, TMEM33 / RFU, WDR75 / Fold change vs veh, WDR75 / RFU, AHCTF1 / Fold change vs veh, AHCTF1 / RFU, TFRC / Fold change vs veh, TFRC / RFU, ZDHHC17 / Fold change vs veh, ZDHHC17 / RFU, NOM1 / Fold change vs veh, NOM1 / RFU, ARL8B / Fold change vs veh, ARL8B / RFU, ZBTB11 / Fold change vs veh, ZBTB11 / RFU, TAMM41 / Fold change vs veh, TAMM41 / RFU, KIAA1704 /// LOC100996395 / Fold change vs veh, KIAA1704 /// LOC100996395 / RFU, ING1 / Fold change vs veh, ING1 / RFU, TRMT61B / Fold change vs veh, TRMT61B / RFU, FUBP3 / Fold change vs veh, FUBP3 / RFU, TP53 / Fold change vs veh, TP53 / RFU, TNKS2 / Fold change vs veh, TNKS2 / RFU, ZFP14 / Fold change vs veh, ZFP14 / RFU, ACTR2 / Fold change vs veh, ACTR2 / RFU, PPP3R1 / Fold change vs veh, PPP3R1 / RFU, PIK3R1 / Fold change vs veh, PIK3R1 / RFU, HNRNPA1 / Fold change vs veh, HNRNPA1 / RFU, RNF170 / Fold change vs veh, RNF170 / RFU, ZNF28 / Fold change vs veh, ZNF28 / RFU, RNGTT / Fold change vs veh, RNGTT / RFU, OGT / Fold change vs veh, OGT / RFU, BRD1 / Fold change vs veh, BRD1 / RFU, MARS / Fold change vs veh, MARS / RFU, ZNF655 / Fold change vs veh, ZNF655 / RFU, FAHD1 / Fold change vs veh, FAHD1 / RFU, BDP1 / Fold change vs veh, BDP1 / RFU, LRRCC1 / Fold change vs veh, LRRCC1 / RFU, ARID1A / Fold change vs veh, ARID1A / RFU, ZNF146 / Fold change vs veh, ZNF146 / RFU, ZNF330 / Fold change vs veh, ZNF330 / RFU, GPN3 / Fold change vs veh, GPN3 / RFU, C9orf123 / Fold change vs veh, C9orf123 / RFU, N4BP2L2 / Fold change vs veh, N4BP2L2 / RFU, ARFIP1 / Fold change vs veh, ARFIP1 / RFU, FAM179B / Fold change vs veh, FAM179B / RFU, BCL10 / Fold change vs veh, BCL10 / RFU, UHRF1BP1L / Fold change vs veh, UHRF1BP1L / RFU, BET1 / Fold change vs veh, BET1 / RFU, CNOT2 / Fold change vs veh, CNOT2 / RFU, ZNF268 / Fold change vs veh, ZNF268 / Fold change vs veh, ZNF507 / RFU, DGCR2 / Fold change vs veh, DGCR2 / RFU, WDSUB1 / Fold change vs veh, WDSUB1 / Fold change vs veh, HSP90B1 /// MIR3652 / RFU, ADSS / Fold change vs veh, ADSS / RFU, GK / Fold change vs veh, GK / RFU, ZNF148 / Fold change vs veh, ZNF148 / RFU, TAF9 / Fold change vs veh, TAF9 / RFU, SLC1A5 / Fold change vs veh, SLC1A5 / RFU, SLMO2 / Fold change vs veh, SLMO2 / RFU, ABCC4 / Fold change vs veh, ABCC4 / RFU, LOC101060439 /// RAP1B / Fold change vs veh, LOC101060439 /// RAP1B / RFU, RFX7 / Fold change vs veh, RFX7 / RFU, GTPBP10 / Fold change vs veh, GTPBP10 / RFU, CNEP1R1 / Fold change vs veh, CNEP1R1 / RFU, BIVM-ERCC5 /// ERCC5 / Fold change vs veh, BIVM-ERCC5 /// ERCC5 / RFU, ILF3 / Fold change vs veh, ILF3 / RFU 11762660_at / Fold change /veh 11762660_at / RFU VCAN (11757783_s_at) / Fold change /veh VCAN (11757783_s_at) / RFU DDX43 (11728927_at) / Fold change /veh DDX43 (11728927_at) / RFU KRT8 (11758188_x_at) / Fold change /veh KRT8 (11758188_x_at) / RFU NKD1 (11759106_at) / Fold change /veh NKD1 (11759106_at) / RFU SRD5A1 (11742802_a_at) / Fold change /veh SRD5A1 (11742802_a_at) / RFU TPSAB1 /// TPSB2 (11721975_s_at) / Fold change /veh TPSAB1 /// TPSB2 (11721975_s_at) / RFU GSTM3 (11746129_a_at) / Fold change /veh GSTM3 (11746129_a_at) / RFU IL23R (11737362_x_at) / Fold change /veh IL23R (11737362_x_at) / RFU TMEM51 (11727254_a_at) / Fold change /veh TMEM51 (11727254_a_at) / RFU PIWIL2 (11732686_x_at) / Fold change /veh PIWIL2 (11732686_x_at) / RFU ORM1 (11744905_x_at) / Fold change /veh ORM1 (11744905_x_at) / RFU CCDC152 (11743942_at) / Fold change /veh CCDC152 (11743942_at) / RFU ECM1 (11717891_a_at) / Fold change /veh ECM1 (11717891_a_at) / RFU IL23R (11748794_a_at) / Fold change /veh IL23R (11748794_a_at) / RFU TNFAIP8L3 (11732012_x_at) / Fold change /veh TNFAIP8L3 (11732012_x_at) / RFU MBOAT4 (11741988_at) / Fold change /veh MBOAT4 (11741988_at) / RFU 11764193_at / Fold change /veh 11764193_at / RFU TMEM53 (11763286_at) / Fold change /veh TMEM53 (11763286_at) / RFU MAGEB2 (11727129_at) / Fold change /veh MAGEB2 (11727129_at) / RFU TMEM200A (11744735_a_at) / Fold change /veh TMEM200A (11744735_a_at) / RFU CCDC152 (11751479_a_at) / Fold change /veh CCDC152 (11751479_a_at) / RFU FAM211A (11726209_a_at) / Fold change /veh FAM211A (11726209_a_at) / RFU RGS16 (11746705_a_at) / Fold change /veh RGS16 (11746705_a_at) / RFU VCAN (11755009_s_at) / Fold change /veh VCAN (11755009_s_at) / RFU RHOB (11743442_s_at) / Fold change /veh RHOB (11743442_s_at) / RFU RGS16 (11720943_a_at) / Fold change /veh RGS16 (11720943_a_at) / RFU RGS16 (11720944_at) / Fold change /veh RGS16 (11720944_at) / RFU, VPS4B / Fold change vs veh, VPS4B / RFU, CREB1 / Fold change vs veh, CREB1 / RFU, DNAJC13 / Fold change vs veh, DNAJC13 / RFU, GNAQ / Fold change vs veh, GNAQ / RFU, CDK5R1 / Fold change vs veh, CDK5R1 / RFU, ZRANB3 / Fold change vs veh, ZRANB3 / RFU, CUL4A / Fold change vs veh, CUL4A / RFU, CCNY / Fold change vs veh, CCNY / RFU, UFL1 / Fold change vs veh, UFL1 / RFU, COG3 / Fold change vs veh, COG3 / RFU, DIAPH2 / Fold change vs veh, DIAPH2 / RFU, SKA2 / Fold change vs veh, SKA2 / RFU, AFF3 / Fold change vs veh, AFF3 / RFU, LMF1 / Fold change vs veh, LMF1 / RFU, IPO11 / Fold change vs veh, IPO11 / RFU, DFFB / Fold change vs veh, DFFB / RFU, FOXP1 / Fold change vs veh, FOXP1 / RFU, CARD8 / Fold change vs veh, CARD8 / RFU, STRN3 / Fold change vs veh, STRN3 / RFU, ADK / Fold change vs veh, ADK / RFU, RASSF2 / Fold change vs veh, RASSF2 / RFU, WIPF1 / Fold change vs veh, WIPF1 / RFU, LARP1B / Fold change vs veh, LARP1B / RFU, RASA1 / Fold change vs veh, RASA1 / RFU, RB1 / Fold change vs veh, RB1 / RFU, PPFIA1 / Fold change vs veh, PPFIA1 / RFU, MAT2A / Fold change vs veh, MAT2A / RFU, CCT5 / Fold change vs veh, CCT5 / RFU, WDR92 / Fold change vs veh, WDR92 / RFU, CUX1 / Fold change vs veh, CUX1 / RFU, TTC7A / Fold change vs veh, TTC7A / RFU, TMEM135 / Fold change vs veh, TMEM135 / RFU, DEPTOR / Fold change vs veh, DEPTOR / RFU, CPM / Fold change vs veh, CPM / RFU, DNAJB6 / Fold change vs veh, DNAJB6 / RFU, CACNA2D3 / Fold change vs veh, CACNA2D3 / RFU, DTX4 / Fold change vs veh, DTX4 / RFU, TFCP2 / Fold change vs veh, TFCP2 / RFU, GMCL1 /// GMCL1P1 / Fold change vs veh, GMCL1 /// GMCL1P1 / RFU, AEBP2 / Fold change vs veh, AEBP2 / RFU, SNHG1 /// SNORD22 /// SNORD25 /// SNORD26 /// SNORD27 /// SNORD28 /// SNORD29 /// SNORD31 / Fold change vs veh, SNHG1 /// SNORD22 /// SNORD25 /// SNORD26 /// SNORD27 /// SNORD28 /// SNORD29 /// SNORD31 / Fold change (Aza/veh), C12orf56 (ProbeSet 11735607_a_at) / Fold change (ACY-1035/veh), C12orf56 (ProbeSet 11735607_a_at) / Fold change (Aza/veh), FGFR1OP (ProbeSet 11751329_s_at) / Fold change (ACY-1035/veh), FGFR1OP (ProbeSet 11751329_s_at) / Fold change (Aza/veh), VPS36 (ProbeSet 11739960_a_at) / Fold change (ACY-1035/veh), VPS36 (ProbeSet 11739960_a_at) / RFU SYPL1 (11715823_x_at) / Fold change /veh SYPL1 (11715823_x_at) / RFU IGFBP7 (11715501_s_at) / Fold change /veh IGFBP7 (11715501_s_at) / RFU REEP3 (11722064_at) / Fold change /veh REEP3 (11722064_at) / RFU IGLL1 (11728026_x_at) / Fold change /veh IGLL1 (11728026_x_at): dose or concentration left out as unconfirmed
Conditions: ProbeSet 11718569_a_at; LIST D

## Nc1ncn([C@@H]2O[C@H](CO)[C@@H](O)[C@H]2O)c(=O)n1 [azacitidine]
  Fold change vs veh, WIPF1: 0.72
